Assay results: patent US6812335B1, “Human polypeptide receptors for lysophospholipids and sphingolipids and nucleic acids encoding the same” (The Regents of the University of California, priority 1999, dated 2004)
Values joined by “and” are separate entries in the source; they are usually repeats but may differ in a detail not shown here. Identical values can stand only once. Like-named read-outs stand apart in the source and are kept apart here.

Experiments:
MCF-7 BCC = MCF-7 BCC secretion of IGF-II; assay type: cell-based, human
MCF-7 BCCs = experiment: SRE-firefly luciferase reporter assay in MCF-7 BCCs; assay type: cell-based, human; details: for maximal increase of mean luciferase luminometric activity: 10^−10 M to 10^−6 M lipid, 4 h
MDA-MB-453 BCCs = experiment: SRE-firefly luciferase reporter assay in MDA-MB-453 BCCs; assay type: cell-based, human; details: for mean maximal increase of luciferase luminometric activity: 10^−10 M to 10^−6 M lipid, 4 h
Edg2 = target: T1, Edg2 (Homo sapiens, UniProt Q92633); experiment: SRE-luciferase reporter gene assay in Edg2-transfected Jurkat cells; assay type: cell-based; details: for EC50: 10-h incubation, read-out: EC50 of activation of SRE-driven reporter gene
T1 construct: the 1.1-kb cDNA coding region of human Edg2 was cleaved from Edg2/RSV (An et al., supra) and also subcloned into pCDEF3; expressed in transfected cells; host or cells: Jurkat leukemic T cells, transient transfection with Edg2/EF3 (pCDEF3 vector)

Edg4 [1] = target: T2, Edg4 (Homo sapiens, UniProt Q9HBW0); experiment: SRE-luciferase reporter gene assay in Edg4-transfected Jurkat cells; assay type: cell-based
T2 construct: The Edg4 protein consists of 382 amino acids with an estimated molecular weight of 42,626 daltons; expressed in transfected cells; host or cells: Jurkat leukemic T cells, transient transfection with Edg4/EF3 (pCDEF3 vector)

Edg4 [2] = experiment: as above; assay type: cell-based, human; details: Edg4 versus Edg2 transfectants
[3] = test system: control vector-transfected Jurkat cells; experiment: [3H]LPA binding in control vector-transfected Jurkat cells
Procedure: (§1) Jurkat T cells (2×10^7 in OPTI-MEM) were transfected with 2 μg of Edg4/EF3 or empty pCDEF3 vector for 4 hours at 37° C. using Lipofectin (Life Technologies, Inc). The transfected cells were maintained in RPMI 1640 medium containing 10% fetal bovine serum for 12 hours at 37° C. and washed three times with phosphate-buffered saline (PBS) before assessment of binding. Duplicate 0.2-ml aliquots of 2×10^6 cells were incubated with 200,000 cpm of ]^3H] LPA in 0.25% bovine serum albumnin-phosphate-buffered saline binding buffer for 45 minutes at 0° C. The final concentration of [^3H]LPA in the binding incubations was 10 nM. The binding cell suspensions were passed through GFIC filters that were washed with 12 ml of ice-cold PBS containing 0.05% Tween-20, air-dried, and added to scintillation fluid for quantification of radioactivity bound to the cells. Total and nonspecific binding were evaluated in the absence and the presence of 10 μM nonradioactive LPA, respectively. Specific binding was calculated from the difference in cpm between total binding and nonspecific binding.

Tsup-1 cells [4] = experiment: Anti-Fas antibody-induced apoptosis of Tsup-1 cell transfectants (DNA endlabeling)
Procedure: Human CD4+8+3^low T lymphoblasts of the Tsup-1 line were cultured in RPMI-1640 medium (UCSF Cell Culture facility) containing 10% (v:v) fetal bovine serum (FBS), 100 U/ml of penicillin G, 100 ug/ml of streptomycin and 1 mM beta-mercaptoethanol (complete RPMI medium) at 37° C. in 5% CO2 in air. Complete RPMI medium was added to cultures every 2-3 days to maintain a density of 0.5-1×10^6 Tsup-1 cells/ml.
Briefly, after conditioning at low serum concentrations replicate suspensions of 5×10^5 Tsup-1 cells in 0.5 ml of RPMI-0.1% FBS were incubated in 24-well plastic plates (Falcon, Inc., Oxnard, Calif.) for 16 h at 37° C. in 5% CO2 in air. Some wells were precoated overnight at 4° C. with 30 ng of anti-Fas antibody (Pharmingen, Inc., San Diego, Calif.), 0.2 ug of anti-CD2 antibody (Pharmirigen, Inc., San Diego, Calif.) or a combination of 0.5 ug each of anti-CD3 antibody (Caltag Laboratories, Inc., So. San Francisco, Calif.) and anti-CD28 antibody (Bristol-Myers Squibb Pharmaceutical Research Institute, Seattle, Wash.), and in others 5 uM C6 ceramide was the stimulus for apoptosis.
Transfections of replicate suspensions of 4×10^6 cells in 2 ml of RPMI-2% FBS cultured as in Example 6 above were carried out by dropwise addition of a 250 ul preincubated mixture of 5 ug of antisense plasmid DNA, 0.2 ug of DNA of the REP 4 plasmid (InVitrogen, San Diego, Calif.) encoding hygromycin resistance and 15 ul of FuGENE 6 non-liposomal lipofection reagent (Boehringer-Mannheim Corp., Indianapolis, Ind.), incubation for 16-24 hours, and washing once and incubation in 4 ml of RPMI-10% FBS with 800 ug/ml of hygromycin for seven additional days. Then the surviving transfectants were washed and cultured in 4 ml of RPMI-0.1% FBS for 16 hours. Antisense plasmids containing full-length cDNA encoding Edg-2, -3, -4 and -5 receptors in the reverse orientation relative to promotors were constructed in the expression vectors pRc/CMV2 for Edg-2, pcDNA 3.1 for Edg-3 and Edg4 (InVitrogen, Inc., Carlsbad, Calif.) and pSV.SPORT1 for Edg-5 (GIBCO BRL, Gaithersburg, Md.) Control cells were sham-transfected with plasmids lacking these antisense inserts.
Briefly, cells from each well were pelleted at 200×g for 5 min at 4° C., resuspended in 0.5 ml of phosphate-buffered 4% formaldehyde, kept at room temperature for 10 minutes, re-pelleted, resuspended in 150 ul of 80% ethanol and immobilized and dried on poly-L-lysine precoated glass slides. Each slide was rehydrated in 20 mM Tris-130 mM NaCl (pH 7.6), and endogenous peroxidases were inactivated by treatment with 3% H2O2 in 90% methanol for 5 minutes at room temperature prior to endlabeling according to the procedures described in instructions for the Klenow-FragEL kit (Oncogene research Products-Calbiochem, Inc. La Jolla, Calif.). Percentage apoptosis was calculated from the number of Tsup-1 cells with stained nuclei of a total of 200 counted.

[5] = test system: Jurkat cells transfected with empty pCDEF3 vector; assay type: cell-based; details: control Jurkat cells
Tsup-1 cells [6] = details: cited from earlier work
Edg4 [7] = target: T2, Edg4; experiment: [3H]LPA receptor binding assay in Edg4-transfected Jurkat cells; details: Edg4 transfectants
Procedure: as §1

[8] = 1 μM lipid, Edg2-transfected Jurkat cells
[9] = 1 μM lipid, Edg4-transfected Jurkat cells
[10] = Edg-2 & -4 antisense pretreatment, lipid 10^−8 M
[11] = Sham transfectants, lipid 10^−8 M, anti-Fas alone = 100%
[12] = Sham transfectants, lipid 10^−9 M, anti-Fas alone = 100%

T2 sequence (Q9HBW0 with tags, fused parts or gaps): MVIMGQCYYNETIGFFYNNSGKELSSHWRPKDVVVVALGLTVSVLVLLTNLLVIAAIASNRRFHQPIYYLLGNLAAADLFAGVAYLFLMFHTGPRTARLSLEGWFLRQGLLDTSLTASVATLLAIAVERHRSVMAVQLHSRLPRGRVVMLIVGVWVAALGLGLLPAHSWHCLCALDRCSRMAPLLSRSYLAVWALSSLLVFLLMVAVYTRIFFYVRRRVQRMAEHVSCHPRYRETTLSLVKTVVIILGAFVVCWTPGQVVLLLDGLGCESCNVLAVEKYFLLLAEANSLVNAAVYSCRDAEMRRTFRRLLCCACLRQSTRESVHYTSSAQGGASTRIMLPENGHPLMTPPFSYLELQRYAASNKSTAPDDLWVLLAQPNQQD
T1 sequence (Q92633 whole entry): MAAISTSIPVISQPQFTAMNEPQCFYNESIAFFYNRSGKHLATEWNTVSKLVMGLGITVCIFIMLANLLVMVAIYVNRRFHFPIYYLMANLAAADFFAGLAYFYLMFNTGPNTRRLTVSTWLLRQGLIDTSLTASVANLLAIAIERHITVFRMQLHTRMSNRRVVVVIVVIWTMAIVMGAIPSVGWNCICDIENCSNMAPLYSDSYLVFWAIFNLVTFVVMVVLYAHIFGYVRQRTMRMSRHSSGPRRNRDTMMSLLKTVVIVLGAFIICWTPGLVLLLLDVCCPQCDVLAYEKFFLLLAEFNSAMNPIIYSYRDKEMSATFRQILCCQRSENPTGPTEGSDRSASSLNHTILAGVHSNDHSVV

In the case of `COc1cccc(-c2cc(=O)c3ccccc3o2)c1N` [MEK, 2′-amino-3′-methoxyflavone], the “inhibition of LPA- and S1P-stimulated secretion of IGF-II” value (MCF-7 BCC) is reported as “inhibited”, the “percentage inhibition of the control SRE reporter response to LPA” value (MCF-7 BCCs; 10^−7 M LPA, serum-free DMEM) is reported as 41% and the “percentage inhibition of the control SRE reporter response to S1P” value (MCF-7 BCCs; 10^−7 M S1P, serum-free DMEM) is reported as 37%. For the same compound, the “percentage inhibition of the control SRE reporter response to LPA” value (MDA-MB-453 BCCs; 10^−7 M LPA, serum-free DMEM) was 69% and the “percentage inhibition of the control SRE reporter response to S1P” value (MDA-MB-453 BCCs; 10^−7 M S1P, serum-free DMEM) was 61%.

In the case of lysophosphatidyl-ethanolamine, the “increase in luciferase expression” value (Edg2; [8]) is reported as “failed to generate significant increases” and the “increase in luciferase expression” value (Edg4 [1]; [9]) is reported as “failed to generate significant increases”.

For phosphatidic acid [PA], the EC50 (Edg2; Edg2-transfected Jurkat cells) was no less than 0.5 µM, the EC50 (Edg4 [1]; Edg4-transfected Jurkat cells, 10-h incubation, read-out: EC50 of activation of SRE-driven reporter gene) was no less than 0.5 µM and the “magnitude of evoked SRE-driven reporter activation of Edg4 relative to that of Edg2” value (Edg4 [2]) was “approximately four times higher”.

With lysophosphatidyl-choline the “increase in luciferase expression” value (Edg2; [8]) was “failed to generate significant increases” and the “increase in luciferase expression” value (Edg4 [1]; [9]) was “failed to generate significant increases”.

For Lysophosphatidic acid [LPA], the “effect on secretion of IGF-II” value (MCF-7 BCC) was “Stimulation”, the “number of LPA-binding sites (receptor density)” value [3] was 15,000±1300 and the “percentage of control apoptosis” value (Tsup-1 cells [4]; [10]) was 61%. For the same compound, the “percentage of control apoptosis” value (Tsup-1 cells [4]; Edg-2 & -4 antisense pretreatment, lipid 10^−9 M) was 69%, the “percentage of control apoptosis” value (Tsup-1 cells [4]; [11]) was 31% and the “percentage of control apoptosis” value (Tsup-1 cells [4]; [12]) was 51%. The “change in SRE-luciferase response” value [5] was “minimal changes”, the “effect on apoptosis evoked by C6-ceramide” value (Tsup-1 cells [6]) was “not” and the “effect on apoptosis induced by anti-Fas antibody and a combination of anti-CD3 and anti-CD28 antibodies” value (Tsup-1 cells [6]) was “prevent apoptosis”. The “maximal increase of mean luciferase luminometric activity” value (MCF-7 BCCs) was “up to 37 fold”, the EC50 (Edg2; Edg2-transfected Jurkat cells) was roughly 0.01 µM and the “mean maximal increase of luciferase luminometric activity” value (MDA-MB-453 BCCs) was 24 fold. For the same compound, the “magnitude of evoked SRE-driven reporter activation of Edg4 relative to that of Edg2” value (Edg4 [2]) was “approximately four times higher” and the “number of LPA-binding sites (receptor density)” value (Edg4 [7]) was 33,000±3200.

For lysophosphatidyl-serine, the “increase in luciferase expression” value (Edg2; [8]) was “failed to generate significant increases” and the “increase in luciferase expression” value (Edg4 [1]; [9]) was “failed to generate significant increases”.

With `CCCCCCCCCCCCC/C=C/[C@@H](O)[C@@H](N)COP(=O)(O)O` [S1P, sphingosine 1-phosphate] the “effect on secretion of IGF-II” value (MCF-7 BCC) was “Stimulation”, the “percentage of control apoptosis” value (Tsup-1 cells [4]; [10]) was 22% and the “percentage of control apoptosis” value (Tsup-1 cells [4]; Edg-3 & -5 antisense pretreatment, lipid 10^−8 M) was 39% and 33%. For the same compound, the “percentage of control apoptosis” value (Tsup-1 cells [4]; Edg-3 & -5 antisense pretreatment, lipid 10^−9 M) was 53%, the “percentage of control apoptosis” value (Tsup-1 cells [4]; [11]) was 18% and the “percentage of control apoptosis” value (Tsup-1 cells [4]; [12]) was 30%. For the same compound, the “effect on apoptosis evoked by C6-ceramide” value (Tsup-1 cells [6]) was “suppressed significantly”, the “effect on apoptosis induced by anti-Fas antibody and a combination of anti-CD3 and anti-CD28 antibodies” value (Tsup-1 cells [6]) was “prevent apoptosis” and the “maximal increase of mean luciferase luminometric activity” value (MCF-7 BCCs) was no more than 85 fold. The “increase in luciferase expression” value (Edg2) was “failed to generate significant increases”, the “mean maximal increase of luciferase luminometric activity” value (MDA-MB-453 BCCs) was 26 fold and the “increase in luciferase expression” value (Edg4 [1]) was “failed to generate significant increases”.
